Earlier results in patent US9861587B2, “Composition and method for treating ketosis in cows” (RP FEED COMPONENTS, LLC, priority 2011, dated 2018).

What was measured:
ketotic cows = details: two ketotic cows; daily injections or oral administration of 12.5 g
bovine ketosis = details: oral administration
[1] = tested on: cases of clinical ketosis; details: six cases; orally 40 g once daily for seven days; 21-day examination period

Row | Compound | treatment of ketosis (ketotic cows) | symptoms of bovine ketosis (bovine ketosis) | serum ketone levels [1]
1 | CSCCC(N)C(=O)O (racemic) [DL-methionine] | unsuccessful treatment | – | –
2 | DL-α-hydroxy-γ-methylmercaptobutyrate calcium [methionine hydroxy analog (MHA)] | – | aided in alleviating symptoms of bovine ketosis | fell slowly over a 21-day examination period, but never returned to normal levels
